The data set relates to CCRIS mutagenicity, Ames/micronucleus/aberration tests. As to the kind of experiment: CCRIS mutagenicity studies.
The mark [1] stands for this setting: Test System: AMES SALMONELLA TYPHIMURIUM, Strain/Indicator: TA98, Metabolic Activation: NONE, Method: PREINCUBATION
Where [2] appears, read: Test System: AMES SALMONELLA TYPHIMURIUM, Strain/Indicator: TA100, Metabolic Activation: NONE, Method: PREINCUBATION
Setting [3] is: Test System: AMES SALMONELLA TYPHIMURIUM, Strain/Indicator: TA1535, Metabolic Activation: NONE, Method: PREINCUBATION
The mark [4] stands for this setting: Test System: AMES SALMONELLA TYPHIMURIUM, Strain/Indicator: TA98, Metabolic Activation: NONE, Method: STANDARD PLATE.
Setting [5] is: Test System: AMES SALMONELLA TYPHIMURIUM, Strain/Indicator: TA100, Metabolic Activation: NONE, Method: STANDARD PLATE.

Activity calls are given as the source filed them. How the calls were made is not given here.

For the molecule `O=C(O)C(F)(F)C(F)(F)C(F)(F)C(F)(F)C(F)(F)C(F)(F)C(F)(F)C(F)(F)C(F)(F)F`, the mutagenic call is, setting by setting: under setting [1], “inactive; negative”; (Test System: AMES SALMONELLA TYPHIMURIUM, Strain/Indicator: TA98, Metabolic Activation: RAT, LIVER, S-9, Method: PREINCUBATION) “inactive; negative”; under setting [2], “inactive; negative”; (Test System: AMES SALMONELLA TYPHIMURIUM, Strain/Indicator: TA100, Metabolic Activation: RAT, LIVER, S-9, Method: PREINCUBATION) “inactive; negative”; under setting [3], “inactive; negative”; (Test System: AMES SALMONELLA TYPHIMURIUM, Strain/Indicator: TA1535, Metabolic Activation: RAT, LIVER, S-9, Method: PREINCUBATION) “inactive; negative”. In addition, the mutagenic call was “inactive; negative” (Test System: AMES SALMONELLA TYPHIMURIUM, Strain/Indicator: TA1537, Metabolic Activation: NONE, Method: PREINCUBATION); “inactive; negative” (Test System: AMES SALMONELLA TYPHIMURIUM, Strain/Indicator: TA1537, Metabolic Activation: RAT, LIVER, S-9, Method: PREINCUBATION); “inactive; negative” (Test System: AMES SALMONELLA TYPHIMURIUM, Strain/Indicator: TA1538, Metabolic Activation: NONE, Method: PREINCUBATION); “inactive; negative” (Test System: AMES SALMONELLA TYPHIMURIUM, Strain/Indicator: TA1538, Metabolic Activation: RAT, LIVER, S=9, Method: PREINCUBATION); “inactive; negative” (Test System: CHINESE HAMSTER OVARY, Strain/Indicator: CHO-K1-BH4 (HGPRT), Metabolic Activation: NONE, Method: STANDARD PLATE); “inactive; negative” (Test System: CHINESE HAMSTER OVARY, Strain/Indicator: CHO-K1-BH4 (HGPRT), Metabolic Activation: RAT, LIVER, S-9, Method: STANDARD PLATE). Further, the mutagenic call (Test System: UDS RODENT HEPATOCYTES, Strain/Indicator: THY INCORP (NON-S-PHASE), Metabolic Activation: NONE, Method: AUTORADIOGRAPHY) is “inactive; negative”.

`O=[N+]([O-])c1c2c(cc3c1ccc1ccccc13)C=C[C@@H](O)[C@@H]2O`: the mutagenic call is “active; positive” under setting [4] and “inactive; negative” under setting [5].

As for `CC(=O)N1CCc2cc([N+](=O)[O-])ccc21`, the mutagenic call (End Point: IN VITRO CHROMOSOMAL ABERRATIONS, Test System: CHL CELLS, Metabolic Activation: RAT, LIVER, S-9, SODIUM PHENOBARBITAL AND 5,6-BENZOFLAVONE) was “inactive; negative”.

`C/C(=C(/OCCOc1ccc(Cl)cc1)c1ccc(Cl)cc1Cl)n1ccnc1`: the mutagenic call was “inactive; negative” under setting [4]; “inactive; negative” (Test System: AMES SALMONELLA TYPHIMURIUM, Strain/Indicator: TA98, Metabolic Activation: RAT, LIVER, S-9, PHENOBARBITAL AND 5,6-BENZOFLAVONE, Method: STANDARD PLATE); “inactive; negative” under setting [5]; “inactive; negative” (Test System: AMES SALMONELLA TYPHIMURIUM, Strain/Indicator: TA100, Metabolic Activation: RAT, LIVER, S-9, PHENOBARBITAL AND 5,6-BENZOFLAVONE, Method: STANDARD PLATE); “inactive; negative” (Test System: AMES SALMONELLA TYPHIMURIUM, Strain/Indicator: TA1535, Metabolic Activation: NONE, Method: STANDARD PLATE); “inactive; negative” (Test System: AMES SALMONELLA TYPHIMURIUM, Strain/Indicator: TA1535, Metabolic Activation: RAT, LIVER, S-9, PHENOBARBITAL AND 5,6-BENZOFLAVONE, Method: STANDARD PLATE). Moreover, the mutagenic call is “inactive; negative” (Test System: AMES SALMONELLA TYPHIMURIUM, Strain/Indicator: TA1537, Metabolic Activation: NONE, Method: STANDARD PLATE); “inactive; negative” (Test System: AMES SALMONELLA TYPHIMURIUM, Strain/Indicator: TA1537, Metabolic Activation: RAT, LIVER, S-9, PHENOBARBITAL AND 5,6-BENZOFLAVONE, Method: STANDARD PLATE); “inactive; negative” (Test System: E. COLI, Strain/Indicator: WP2 UVRA, Metabolic Activation: NONE, Method: STANDARD PLATE); “inactive; negative” (Test System: E. COLI, Strain/Indicator: WP2 UVRA, Metabolic Activation: RAT, LIVER, S-9, PHENOBARBITAL AND 5,6-BENZOFLAVONE, Method: STANDARD PLATE).

With `Cc1ccc(S(=O)(=O)NC(=O)NN2CCCCCC2)cc1`, the mutagenic call runs as follows: (Test System: AMES SALMONELLA TYPHIMURIUM, Strain/Indicator: TA97, Metabolic Activation: HAMSTER, LIVER, S-9, AROCLOR 1254 (10%), Method: PREINCUBATION) “inactive; negative”; (Test System: AMES SALMONELLA TYPHIMURIUM, Strain/Indicator: TA97, Metabolic Activation: HAMSTER, LIVER, S-9, AROCLOR 1254 (30%), Method: PREINCUBATION) “inactive; negative”; (Test System: AMES SALMONELLA TYPHIMURIUM, Strain/Indicator: TA97, Metabolic Activation: NONE, Method: PREINCUBATION) “inactive; negative”; (Test System: AMES SALMONELLA TYPHIMURIUM, Strain/Indicator: TA97, Metabolic Activation: RAT, LIVER, AROCLOR 1254 (30%), Method: PREINCUBATION) “inactive; negative”; (Test System: AMES SALMONELLA TYPHIMURIUM, Strain/Indicator: TA97, Metabolic Activation: RAT, LIVER, S-9, AROCLOR 1254 (10%), Method: PREINCUBATION) “inactive; negative”; (Test System: AMES SALMONELLA TYPHIMURIUM, Strain/Indicator: TA98, Metabolic Activation: HAMSTER, LIVER, S-9, AROCLOR 1254 (10 OR 30%), Method: PREINCUBATION) “inactive; negative”. The mutagenic call is, setting by setting: under setting [1], “inactive; negative”; (Test System: AMES SALMONELLA TYPHIMURIUM, Strain/Indicator: TA98, Metabolic Activation: RAT, LIVER, S-9, AROCLOR 1254 (10 OR 30%), Method: PREINCUBATION) “inactive; negative”; (Test System: AMES SALMONELLA TYPHIMURIUM, Strain/Indicator: TA100, Metabolic Activation: HAMSTER, LIVER, S-9, AROCLOR 1254 (10 OR 30%), Method: PREINCUBATION) “inactive; negative”; under setting [2], “inactive; negative”; (Test System: AMES SALMONELLA TYPHIMURIUM, Strain/Indicator: TA100, Metabolic Activation: RAT, LIVER, S-9, AROCLOR 1254 (10%), Method: PREINCUBATION) “inactive; negative”; (Test System: AMES SALMONELLA TYPHIMURIUM, Strain/Indicator: TA1535, Metabolic Activation: HAMSTER, LIVER, S-9, AROCLOR 1254 (10%), Method: PREINCUBATION) “inactive; negative”. Also, the mutagenic call (Test System: AMES SALMONELLA TYPHIMURIUM, Strain/Indicator: TA1535, Metabolic Activation: HAMSTER, LIVER, S-9, AROCLOR 1254 (30%), Method: PREINCUBATION) was “active; positive”; the mutagenic call under setting [3] is “inactive; negative”; the mutagenic call (Test System: AMES SALMONELLA TYPHIMURIUM, Strain/Indicator: TA1535, Metabolic Activation: RAT, LIVER, S-9, AROCLOR 1254 (10 OR 30%), Method: PREINCUBATION) is “inactive; negative”.

For the molecule `Cn1c2ccc3ccccc3c2c2c3ccccc3ccc21`, the mutagenic call was “active; positive” (Test System: AMES SALMONELLA TYPHIMURIUM, Strain/Indicator: TA100, Metabolic Activation: RAT, LIVER, S-9, AROCLOR 1254, Method: STANDARD PLATE); “inactive; negative” (Test System: AMES SALMONELLA TYPHIMURIUM, Strain/Indicator: TM677, Metabolic Activation: RAT, LIVER, S-9, 3-METHYLCHOLANTHRENE (1%), Method: PREINCUBATION); “inactive; negative” (Test System: AMES SALMONELLA TYPHIMURIUM, Strain/Indicator: TM677, Metabolic Activation: RAT, LIVER, S-9, 3-METHYLCHOLANTHRENE (10%), Method: PREINCUBATION); “inactive; negative” (Test System: AMES SALMONELLA TYPHIMURIUM, Strain/Indicator: TM677, Metabolic Activation: RAT, LIVER, S-9, AROCLOR 1254 (10%), Method: PREINCUBATION).

Values taken from PubChem BioAssay AID1259407 (Chemical Carcinogenesis Research Information System (CCRIS), 2018).
